Experimental data as given in paper PMC10382589, “In vitro and in vivo antiplasmodial evaluation of sugar-modified nucleoside analogues” (Scientific Reports, 2023).
“Also recorded” adds a separate entry of the source. Read-outs that look alike come from different tables or passages of the source.

Assays:
[1] = tested on: Pf3D7 chloroquine-sensitive strain; test: SYBR green I based fluorescence growth inhibition assay, Pf3D7; assay type: cell-based, Plasmodium falciparum; conditions: for IC50: Plasmodium falciparum, chloroquine-sensitive strain, synchronized late trophozoite parasites, SYBR Green, triplicate, mean ± SD, read-out: IC50 (µM) against Pf3D7; for growth inhibition against Pf3D7 (in words): screen at 1 µM and 10 µM, vs untreated control (Fig. S1)
Description: Growth of one intraerythrocytic cycle of Pf was monitored after treated with compounds whereas untreated parasites were considered as control.
(§1) The percent growth inhibition of the parasites was evaluated by SYBR Green assay.
(§2) Pf3D7 and PfRKL-9 were cultured by following procedure reported by Trager and Jensen[33]. […] In order to examine the morphological changes in the parasite, a blood film must be prepared. A thin blood film was air-dried, fixed with methanol, and allowed to dry before staining. […] Light microscopy analysis was carried out to evaluate the inhibitory effect of compounds at different concentrations against Pf3D7 and PfRKL-9.
SYBR green I based fluorescence assay was performed to measure the growth inhibition effect of the 26 compounds and further dose dependent assay against Pf3D7, and PfRKL-9 (Indian field strain, source- NIMR, New Delhi, India) was carried out at different concentrations. […] Parasitized erythrocytes were treated with different concentrations of compounds ranging from 1 µM to 10 µM, whereas DMSO worked as a control. Triplicate wells of parasitized erythrocytes treated with compounds were seeded in 96 well microtiter plate following incubation at 37 °C for one cycle of parasite growth. […] Growth inhibition (%) was calculated as follows: % Inhibition = [1 − % Parasitemia (Treatment)/% Parasitemia (Control)] *100. Data were expressed as mean ± SD.

[2] = tested on: chloroquine resistant strain PfRKL-9; test: SYBR green I based fluorescence growth inhibition assay, PfRKL-9; assay type: cell-based; conditions: Plasmodium falciparum, synchronized late trophozoite parasites, triplicate, mean ± SD, read-out: IC50 (µM) against PfRKL-9
Description: as §1, §2
SYBR green I based fluorescence assay was performed to measure the growth inhibition effect of the 26 compounds and further dose dependent assay against Pf3D7, and PfRKL-9 (Indian field strain, source- NIMR, New Delhi, India) was carried out at different concentrations. In brief, Pf3D7 and PfRKL-9 parasitized erythrocytes (trophozoite stage with 1% parasitemia) were diluted with noninfected erythrocytes at a constant 2% hematocrit in culture medium. Parasitized erythrocytes were treated with different concentrations of compounds ranging from 1 µM to 10 µM, whereas DMSO worked as a control. Triplicate wells of parasitized erythrocytes treated with compounds were seeded in 96 well microtiter plate following incubation at 37 °C for one cycle of parasite growth. […] Growth inhibition (%) was calculated as follows: % Inhibition = [1 − % Parasitemia (Treatment)/% Parasitemia (Control)] *100. Data were expressed as mean ± SD.

[3] = tested on: embryonic kidney cell lines, HEK-293
Description: Cytotoxicity against human embryonic kidney cell line (ATCC) was determined using MTT dye[35]. In order to measuring the cytotoxicity of the compounds we used MTT dye to detect live/dead cells. […] cells were stored at 37 °C, 5% CO2 in […] sterile culture flasks (Corning) in complete Dulbecco's Modified Eagle Medium (DMEM) culture medium (a) supplemented with 5% Fetal Bovine Serum (FBS), gentamicin ([…]), with changing the medium thrice a week. The monolayers were washed, counted, diluted in complete medium, distributed in 96-well microtiter plates (5000 cells/well), followed by incubation for another 24 h at 37 °C. The test compounds and DMSO were added in triplicate. After a 48 h incubation at 37 °C, the supernatant was removed and 100 µL of MTT solution in complete DMEM was added to each well, followed by 2 h incubation at 37 °C. The culture plates were read in a spectrophotometer (Tecan infinite M200, nanoquant, UK) with a 490 nm filter, and the cytotoxic concentrations were determined based on a dose response curve.

human RBCs = test: Hemolytic activity on human RBCs; assay type: cell-based; conditions: 0.5-20 µM, 10% (v/v) RBC suspension, 1 h, absorbance at 415 nm
Description: Effect of compounds on human RBCs was checked with the help of spectrophotometry by measuring the lysis of human red blood cells (hRBCs). Compounds were tested at 0.5, 1, 5, 10 and 20 μM concentrations with 10% (v/v) RBCs suspension for 1 h and observed the percentage of RBCs lysis by compounds 7, 16, 17, 18 and 1.
Human RBCs were from Rotary Blood Bank, Tughlakabad Institutional Area, New Delhi, India. Effect of compounds on RBCs was checked by hemolytic assay. In brief, RBCs suspension with 10% (v/v) washed with 1 × Phosphate-buffered saline (PBS) (pH 7.4) and again resuspended in 1 × PBS. RBCs suspension was incubated with compounds 7, 16, 17, 18 and 1 at different concentrations (0.5, 1, 5, 10 and 20 μM) for 1 h at 37 °C. Samples were centrifuged and supernatant was taken for absorbance at 415 nm. Triton X-100 with 1% (v/v) was used as a positive control. Experiment was done in triplicate.

[4] = tested on: Mitochondrial membrane potential of the malaria parasites; test: JC-1 mitochondrial membrane potential assay; assay type: cell-based, Plasmodium falciparum; conditions: parasites treated with IC50 concentration for 3 h; untreated control 7.04 ± 1.30
Description: Mitochondrial membrane potential is a marker of mitochondria’s functional status. Modification in mitochondrial membrane potential leading to mitochondrial dysfunction triggers cell death[25],[26]. Mitochondrial dysfunction was detected by using membrane permeant JC-1 dye. JC-1 is a cationic probe, due to electronegative environment inside the functionally active mitochondria with high Δψm, it aggregates in energised mitochondria and gives red color fluorescence at 590 nm, but in case of low Δψm (depolarized state), JC-1 remain in monomeric form and gives green color fluorescence at […]. Decreased ratio of red/green fluorescence intensity of compound treated sample as compared to untreated control indicates depolarized mitochondrial membrane[27],[28]. The damage to the parasite's mitochondria after treatment with compounds 7, 16, 17, 18 and 1 was measured according to the method reported previously. Because of lipophilic nature of the JC-1, it is cell permeable and emits a green signal (525 nm) in the cytoplasm, but the high transmembrane potential of functional mitochondria causes it to aggregate and emit a red signal (590 nm). […]. Mitochondrial membrane potential of the malaria parasites was determined by using MitoProbe™ JC-1 assay as described previously. In brief, trophozoite stage parasites (10–12% parasitemia) were treated with IC50 concentration of compounds 7, 16, 17, 18 and 1 for 3 h at 37 °C in the CO2 incubator. Samples were washed with 1 × PBS by centrifugation at 500 × g for 2 min at RT. Freshly prepared JC-1 dye was added to each sample with working concentration of 5 µg/mL. Incubation was done for 30 min at 37 °C in a CO2 incubator. Cells were washed twice with 1 × PBS. Spectrofluorometer was used to observe mitochondrial membrane potential by measuring fluoroscence intensities from the parasite lysate at wavelength of excitation (520 nm) and emission (590 nm) respectively. In vivo cell imaging was done with the help of Olympus fluoview 3000 confocal microscopy. Live cell imaging was observed under a 100X objective (oil immersion) and band pass filter at 355–460 nm. Experiments were repeated thrice and only representative figures are shown (Fig. 6).

P. berghei ANKA = test: In vivo antiplasmodial activity in P. berghei ANKA infected BALB/c mice; parameters: species or system Plasmodium berghei ANKA
Description: In vivo antiplasmodial efficacy of 7 was assessed in P. berghei ANKA infected BALB/c mice model. Compound dose was given intra-peritoneal injections for seven days in a row. To check the parasitemia, thin blood smears were made from P. berghei ANKA infected mice for up to seven consecutive days. […] Compound 7 was able to effectively reduce the parasite load compared to a control group of untreated mice for seven consecutive days post infection.
To make relevant inferences, statistical analyses were carried out on the in vivo data using Graphpad Prism data sheets.
Antiplasmodial activity of hit compound 7 was investigated in mice model with the help of protocol described previously. Briefly, intra-peritoneal injection of 1 × 10^7 Plasmodium berghei ANKA infected erythrocytes diluted with sterile 1 × PBS was injected into mice. In each group five mice were taken. Thin smears were made from the tail blood of mice to check the infection. Post infection, P. berghei infected mice administered intra-peritoneally with compound 7 with the dose of 50 mg/kg body weight, daily for seven consecutive days post infection. Mice treated with 1xPBS were kept as vehicle control. […] Data were calculated and presented as percentage increase in the parasitemia. All animal experiments were carried out in accordance with the standard approved procedures. […]

[5] = HEK-293 cells, MTT, 48 h incubation

SMILES: Cc1cn([C@@H]2O[C@H](CN3C[C@@H](COC(c4ccccc4)(c4ccccc4)c4ccccc4)O[C@@H](n4ccc(=O)[nH]c4=O)C3)[C@H]3OC(C)(C)O[C@H]32)c(=O)[nH]c1=O [Compound 1]
- IC50 [1]: 1.31 ± 1.1 µM
- growth inhibition against Pf3D7 (in words) [1]: significant growth inhibition in a dose dependent manner; also recorded: good/excellent inhibitory effect
- IC50 [2]: 1.83 ± 0.7 µM
- Cell survival (%) at 500 µM [3, 5]: 45%
- lysis of human RBCs (in words) (human RBCs): no significant lysis
- JC-1 red/green ratio [4]: 5.69 ± 0.70

SMILES: COc1ccc(C(OC[C@@H]2CN(C[C@H]3O[C@@H](n4cc(C)c(=O)[nH]c4=O)C[C@@H]3O)C[C@H](n3cc(C)c(=O)[nH]c3=O)O2)(c2ccccc2)c2ccc(OC)cc2)cc1 [Compound 3]
- IC50 [1]: 1.19 ± 1.1 µM
- growth inhibition against Pf3D7 (in words) [1]: remarkable actvity; also recorded: good/excellent inhibitory effect
- IC50 [2]: 4.5 ± 2.5 µM
- lysis of human RBCs (in words) (human RBCs): showed cytotoxicity towards human RBCs; also recorded: showed toxicity

SMILES: Nc1ncnc2c1ncn2[C@@H]1O[C@H](CN2C[C@@H](CO)O[C@@H](n3cnc4c(=O)[nH]cnc43)C2)[C@@H](O)[C@H]1O [Compound 5]
- IC50 [1]: 1.34 ± 2.1 µM
- growth inhibition against Pf3D7 (in words) [1]: remarkable actvity
- IC50 [2]: 6.23 ± 1.5 µM
- lysis of human RBCs (in words) (human RBCs): showed cytotoxicity towards human RBCs; also recorded: showed toxicity

SMILES: CC(=O)OC[C@H]1O[C@@H](SC[C@@H]2O[C@@H](n3cnc4c(NC(c5ccccc5)(c5ccccc5)c5ccccc5)ncnc43)[C@@H]3OC(C)(C)O[C@@H]32)[C@H](OC(C)=O)[C@@H](OC(C)=O)[C@@H]1OC(C)=O [Compound 7, 1-[2’,3’-O-isopropylidene-5’-S-(2,3,4,6-tetra-O-acetyl-β-D-glucopyranosyl)-5’-thio-α-L-lyxofuranosyl]-N-trityl-adenine]
- IC50 [1]: 0.92 ± 1.8 µM
- growth inhibition against Pf3D7 (in words) [1]: significant growth inhibition in a dose dependent manner
- IC50 [2]: 2.1 ± 1.3 µM
- Cell survival (%) at 500 µM [3, 5]: 55%
- lysis of human RBCs (in words) (human RBCs): no significant lysis
- JC-1 red/green ratio [4]: 5.26 ± 1.13
- percentage parasitemia on the seventh day (P. berghei ANKA; 50 mg/kg intra-peritoneal, seven days, control 25%): 10%
- Mean survival time (MST) (P. berghei ANKA; 50 mg/kg, observed 21 days post-infection, control MST = 10 days): 14 days

SMILES: CC(=O)OC[C@H]1O[C@@H](SC[C@@H]2[C@@H](O[Si](C)(C)C(C)(C)C)[C@H](n3ccc(=O)[nH]c3=O)O[C@@H]2CO[Si](C)(C)C(C)(C)C)[C@H](OC(C)=O)[C@@H](OC(C)=O)[C@H]1OC(C)=O [Compound 16, 1-[3’-Deoxy-3’-C-(-2,3,4,6-tetra-O-acetyl-β-D-galactopyranosyl-sulfanylmethyl)-2’,5’-di-O-(tert-butyldimethylsilyl)-β-D-xylofuranosyl]-uracil]
- IC50 [1]: 1.78 ± 1.3 µM
- growth inhibition against Pf3D7 (in words) [1]: significant growth inhibition in a dose dependent manner
- IC50 [2]: 9.55 ± 1.7 µM
- Cell survival (%) at 500 µM ([3]; human, 48 h): 52%
- lysis of human RBCs (in words) (human RBCs): no significant lysis
- JC-1 red/green ratio [4]: 4.98 ± 1.77

SMILES: CC(=O)O[C@@H]1[C@@H](OC(C)=O)[C@H](SC[C@@H]2[C@@H](O[Si](C)(C)C(C)(C)C)[C@H](n3ccc(=O)[nH]c3=O)O[C@@H]2CO[Si](C)(C)C(C)(C)C)OC[C@H]1OC(C)=O [Compound 17, 1-[3’-Deoxy-3’-C-(-2,3,4-tri-O-acetyl-β-D-xylopyranosyl-sulfanylmethyl)-2’,5’-di-O-(tert-butyldimethylsilyl)-β-D-xylofuranosyl]-uracil]
- IC50 [1]: 1.33 ± 1.07 µM
- growth inhibition against Pf3D7 (in words) [1]: significant growth inhibition in a dose dependent manner
- IC50 [2]: 1.84 ± 1.06 µM
- Cell survival (%) at 500 µM ([3]; human, 48 h): 51%
- lysis of human RBCs (in words) (human RBCs): no significant lysis
- JC-1 red/green ratio [4]: 6.28 ± 1.55

SMILES: CC(=O)N[C@@H]1[C@@H](OC(C)=O)[C@H](OC(C)=O)[C@@H](COC(C)=O)O[C@H]1SC[C@@H]1[C@@H](O[Si](C)(C)C(C)(C)C)[C@H](n2cc(C)c(=O)[nH]c2=O)O[C@@H]1CO[Si](C)(C)C(C)(C)C [Compound 18, 1-[3’-Deoxy-3’-C-((2-acetamido-3,4,6-tri-O-acetyl-β-D-glucopyranosylthio)methyl)-2’,5’-di-O-(tert-butyldimethylsilyl)-β-D-xylofuranosyl]-5-methyluracil]
- IC50 [1]: 1.15 ± 1.5 µM
- growth inhibition against Pf3D7 (in words) [1]: significant growth inhibition in a dose dependent manner
- IC50 [2]: 2.21 ± 1.3 µM
- Cell survival (%) at 500 µM ([3]; human, 48 h): 60%
- lysis of human RBCs (in words) (human RBCs): no significant lysis
- JC-1 red/green ratio [4]: 5.53 ± 1.40
